Measurements as given in patent publication US10969390B2, “Method for evaluating efficacy of chemoradiotherapy against squamous cell carcinoma” (NATIONAL CANCER CENTER, priority 2014, dated 2021).

What was measured:
[1] = test system: SIM2 stably expressing lines (KYSE510-SIM2-27 and -37, TE8-SIM2-2 and -3, T.Tn-SIM2-9 and -23) of esophageal squamous cell carcinoma cell lines; test: anticancer-agent sensitivity test of SIM2-gene stably expressing lines, two-dimensional culturing, viable cell count (trypan blue); type: cell-based; conditions: for sensitivities to anticancer agents of SIM2 stably expressing lines in comparison with control-vector introduced lines: two-dimensional culture, 3 days, CDDP 2, 5, 10 μM, 5-FU 10 μM, DTX 1 nM, versus KYSE510-Mock, TE8-Mock, T.Tn-Mock
Method: (§1) The SIM2 gene was introduced into TE8 obtained from RIKEN BRC and KYSE510 and T. Tn obtained from JCRB Cell Bank. The resultant was cultured in a medium containing 400 μg/ml of G-418 for approximately 2 weeks. The G418 resistant colonies were isolated and cultured. The SIM2 gene expression was confirmed by an RT-PCR method. Thus, SIM2-gene stably expressing lines were established. Cell lines in which only a GFP expression plasmid vector was introduced were prepared as control cell lines. To extract the total RNAs and evaluate the differentiation-inducing activities of the SIM2-gene stably expressing lines, the SIM2-gene stably expressing lines were each seeded into NanoCulture (registered trademark) Plate and then cultured with a normal medium for 3 days. The total RNA was extracted, and an RT-PCR method was performed. The cDNA was synthesized using SuperScript (registered trademark) III First-Strand Synthesis System for RT-PCR. The diluted cDNA was mixed with AccuPrime (registered trademark) Taq DNA Polymerase System (Invitrogen), primers, and nuclease-free water, and amplified using GeneAmp (registered trademark) PCR System 9700 (Applied Biosystems Inc.). The resultant was quantified and compared by agarose gel electrophoresis.
To evaluate the sensitivities of the SIM2-gene stably expressing lines to cisplatin (CDDP), 5-fluorouracil (5-FU), and docetaxel (DTX), an anticancer-agent sensitivity test was conducted. The SIM2-gene stably expressing lines were each seeded into a 6-well plate, cultured with a normal medium for 1 day, and then cultured with a normal medium or a medium supplemented with CDDP (2 μM, 5 μM, 10 μM), 5-FU (10 μM), or DTX (1 nM) for 3 days. After the chemical treatment was completed, the cells were collected using 0.25% trypsin/EDTA and stained with trypan blue. After that, the number of viable cells was counted.

[2] = test system: SIM2 stably expressing lines (T.Tn-SIM2-9 and -23); test: cisplatin long-term sensitivity test of SIM2-gene stably expressing lines, three-dimensional culturing, viable cell count; type: cell-based; conditions: 14 days, CDDP 5×10^−6 M, T.Tn-SIM2-9 and -23 versus T.Tn-Mock
Method: as §1, with “The diluted cDNA was mixed with AccuPrime (registered trademark) Taq DNA Polymerase System (Invitrogen), primers, and nuclease-free water, and amplified using GeneAmp (registered trademark) PCR System 9700 (Applied Biosystems Inc.).” left out
To evaluate the sensitivities of the SIM2-gene stably expressing lines to CDDP long-term administration, an anticancer-agent sensitivity test was conducted employing three-dimensional culturing. […] After that, the number of viable cells was counted.

| SMILES | sensitivities to anticancer agents of SIM2 stably expressing lines in comparison with control-vector introduced lines [1] | CDDP effect in 3 days (two-dimensional culturing) ([1]; concentration near IC50, 3 days, FIG. 6) | sensitivities to CDDP of SIM2 stably expressing lines in comparison with control-vector introduced line [2] |
| --- | --- | --- | --- |
| CC(=O)O[C@@]12CO[C@@H]1C[C@H](O)[C@@]1(C)C(=O)[C@H](O)C3=C(C)[C@@H](OC(=O)[C@H](O)[C@@H](NC(=O)OC(C)(C)C)c4ccccc4)C[C@@](O)([C@@H](OC(=O)c4ccccc4)[C@H]21)C3(C)C [docetaxel] | increased | – | – |
| O=c1[nH]cc(F)c(=O)[nH]1 [5-fluorouracil] | increased | – | – |
| N.N.[Cl][Pt][Cl] [cisplatin] | increased | significant but small | remarkably increased |
